The values below come from ChEMBL document CHEMBL1152581, “Delta-di-carboxybutyl phosphoramidate of 2'-deoxycytidine-5'-monophosphate as substrate for DNA polymerization by HIV-1 reverse transcriptase” (Bioorg Med Chem, 2009).

Active and inactive are the calls of the source. No cut-off for these calls is given here.

Test [1] deals with Human immunodeficiency virus type 1 reverse transcriptase (Human immunodeficiency virus 1) (UniProt Q72547). Description: Activity at HIV1 reverse transcriptase assessed as elongation of DNA primer after 60 mins at 500 uM by single nucleotide incorporation assay.
The target is the same in test [2]. The experiment in a line: Activity at HIV1 reverse transcriptase assessed as elongation of DNA primer after 60 mins by single nucleotide incorporation assay.
Test [3] shares this target. Description: Activity at HIV1 reverse transcriptase assessed as elongation of DNA primer up to 120 mins at 500 uM by single nucleotide incorporation assay.
Test [4] has the same target. The experiment in a line: Activity at HIV1 reverse transcriptase assessed as elongation of DNA primer up to 120 mins at 1 mM by single nucleotide incorporation assay.

Regarding `Nc1ncnc2c1ncn2[C@H]1C[C@H](O)[C@@H](COP(=O)(O)N[C@@H](CC(=O)O)C(=O)O)O1`, the Activity in test [1] amounted to 82%.

Regarding `Nc1ccn([C@@H]2O[C@H](COP(=O)(O)NCCCC(C(=O)O)C(=O)O)C[C@H]2O)c(=O)n1`, the result in test [2] was inactive.

With `Nc1ccn([C@H]2C[C@H](O)[C@@H](COP(=O)(O)NCCCC(C(=O)O)C(=O)O)O2)c(=O)n1`, the Activity in test [3] was determined as 60%; in test [1] it was 54%; in test [4], 60%.
